# Laboratory results reported in article PMC4775225, “Bromodomain inhibition of the transcriptional coactivators CBP/EP300 as a therapeutic strategy to target the IRF4 network in multiple myeloma” (eLife, 2016).
# Where two headings read alike, the source gives them in different places.
# Key:
# KMS28BM = assay: Viability, resazurin, 6 days; type: cell-based, human; details: for GI50: Homo sapiens, KMS-28BM, 144 h, myeloma, 6 days
# Protocol: (§1) Cells were plated at 5000–10000 cells per well of 96-well plates containing titrations of the compounds as indicated. After incubation, the cells were incubated with 500 μg/ml resazurin (Sigma) in PBS for 2–8 hr, and fluorescence was measured (Ex 530 nm, Em 590 nm). Cell cycle analysis was performed as described previously ([Mertz et al., 2011]). For visualization, DNA content histograms were generated with GraphPad Prism. Dose-response curves were generated by plotting the normalized percent growth, percent sub-G1 and percent increase in G0/G1 at each dose values. GI50 values were determined as the concentration at which viability was 50% of the DMSO value and calculated by a four-parameter non-linear regression model in GraphPad Prism.
# MOLP-8 = assay: Viability, resazurin, 6 days; type: cell-based, human; details: for GI50: Homo sapiens, 144 h, MOLP-8, myeloma, 6 days
# Protocol: as §1
# KMM-1 = assay: Viability, resazurin, 6 days; type: cell-based, human; details: for GI50: Homo sapiens, 144 h, KMM-1, myeloma, 6 days
# Protocol: as §1
# AMO-1 = assay: Viability, resazurin, 6 days; type: cell-based, human; details: for GI50: Homo sapiens, AMO1, 144 h, AMO-1, myeloma, 6 days
# Protocol: as §1
# RS4;11 = assay: Viability, resazurin, 6 days; type: cell-based, human; details: for GI50: Homo sapiens, 144 h, RS4;11, ALL, 6 days
# Protocol: as §1
# NCI-H929 = assay: Viability, resazurin, 6 days; type: cell-based, human; details: for GI50: Homo sapiens, 144 h, NCI-H929, myeloma, 6 days
# Protocol: as §1
# RPMI-8226 = assay: Viability, resazurin, 6 days; type: cell-based, human; details: for GI50: Homo sapiens, 144 h, RPMI-8226, myeloma, 6 days
# Protocol: as §1
# OPM2 = assay: Viability, resazurin, 6 days; type: cell-based, human; details: for GI50: Homo sapiens, OPM-2, 144 h, OPM2, myeloma, 6 days
# Protocol: as §1
# LP-1 = assay: Viability, resazurin, 6 days; type: cell-based, human; details: for GI50: Homo sapiens, 144 h, LP-1, myeloma, 6 days
# Protocol: as §1
# IRF4 mRNA = IRF4 mRNA expression, qRT-PCR; type: cell-based, human; details: for log2FC (IRF4): 2.5 μM, 6 hr, log2 fold change relative to DMSO; for IC50: Homo sapiens, read-out: IC50, inhibition of IRF4 mRNA expression
# Protocol: Total RNA was prepared with an RNeasy Mini Kit (Qiagen, Inc.; Hilden, Germany) with on column DNAse digestion and submitted to Ocean Ridge Biosciences (Palm Beach Gardens, FL) for sequencing and mapping. The data in RPKM for each gene with compound treatment was compared to DMSO treatment, and log2 fold changes were used for further analysis. Rank ordered gene lists were used for Gene Set Enrichment Analysis ([Subramanian et al., 2005]). RNA preparation, cDNA synthesis, and qRT-PCR were performed as described ([Mertz et al., 2011]). For dose titration experiments, cells in 96 -well plates were lysed in lysis buffer (1% Triton X-100, […] pH 2.5) and used directly for cDNA synthesis and qRT-PCR. Primer sequences can be found in Supplementary file 1.
# [1] = molecular target: T1, full length BRD4 ZsGreen fusion protein (Homo sapiens, UniProt O60885); assay: Bromodomain chromatin release assay, BRD4 (U2OS, high content imaging); type: cell-based; details: 2 hr, n = 2 biological replicates ± SEM, read-out: IC50 (μM), BRD4 chromatin release (EC50)
# T1 construct: CBP: CBP-bromodomain/BRD9; BRD4: full length BRD4; expressed in transfected cells
# Protocol: As described previously ([Huang et al., 2014]), this assay monitors the compound-dependent release and aggregation of a fusion protein consisting of a bromodomain and the fluorescent protein ZsGreen. For the BRD4 chromatin release assay, U2OS cells capable of inducibly expressing the full-length BRD4 protein in fusion with ZsG were generated using the pLVT3G/ZsGreen-BRD4/TO3G vector and maintained in blasticidin at 15 μg/ml. […] Therefore, the bromodomain (BD) of CBP was cloned into full length BRD9 (replacing the BRD9 BD) in frame with a ZsGreen fluorescent tag (ZsG). U2OS cells capable of inducibly expressing the ZsGreen-CBPBD fusion protein were generated by lentiviral delivery of the pLVT3G/BRD9-ZsG-CBPBD/TO3G vector, which contains both the inducible fusion protein and the tet transactivator. Cells were selected and maintained in the presence of 15 μg/ml blasticidin. 5000 cells/well were seeded in 384-well imaging plates in the presence of 2 μg/ml doxycycline to induce the expression of ZsG-fusion proteins. After 16 hr of incubation with doxycycline, fresh media containing serial dilution of compounds were added to the cells for 2 hr at 37°C. Cells were fixed with 4% paraformaldehyde (PFA) dissolved in PBS for 15 min at room temperature. Images of cells were acquired using ImageXpress Micro (Molecular Devices, Inc.; Sunnyvale, CA) and processed with the Transfluor Module of MetaXpress software. Average pits per cell values were obtained from four adjacent images in each well with two technical replicates for each compound concentration. Dose-response curves were generated by plotting the average pits per cell values at each dose and EC50 values were calculated by a four-parameter non-linear regression model in GraphPad Prism.
# [2] = molecular target: T2, first bromodomain of BRD4 (BRD4-BD1) (Homo sapiens, UniProt O60885); assay: AlphaLISA, acetylated peptide binding to BRD4-BD1
# T2 construct: the first bromodomain of BRD4 (BRD4-BD1)
# Protocol: Compound at varying concentrations were dispensed into 384 well Proxiplates (Perkin Elmer) using Echo technology (Labcyte, Inc.; Sunnyvale, CA). For CBP assays, 0.5 μM His-Flag-tagged CBP bromodomain (amino acids 1082–1197) was incubated with 0.003 μM H4-TetraAc-biotin for 20 min at room temperature in 1x reaction buffer (50 mM HEPES pH 7.5, 1 mM TCEP, 0.069 mM Brij-35, 150 mM NaCl, and 0.1 mg/ml BSA). Streptavidin acceptor beads and nickel donor beads (Perkin Elmer) were added to 15 μg/ml with a Combi Multidrop dispenser. Plates were sealed and incubated at 90 min in the dark at room temperature, and plates were read on an Envision plate reader (Perkin Elmer) according to manufacturer’s instructions. For the BET assays, the protocol was similar except that BET family bromodomains were used at 0.03 μM (BRD4-BD1) and incubated with 0.2 μM H4-TetraAc-biotin for 20 min in reaction buffer (40 mM HEPES pH7.0, 1 mM DTT, 0.069 mM Brij-35, 40 mM NaCl, and 0.1 mg/ml BSA). Streptavidin donor beads and Anti-Flag Acceptor beads (Perkin Elmer) were added to 10 μg/ml, and then plates were sealed and incubated in the dark for 60 min prior to reading on the Envision.
GI50 (RS4;11) [nM],GI50 (NCI-H929) [nM],GI50 (RPMI-8226) [nM],"IC50 (IRF4 mRNA; OPM-2, OPM2, 6 hr) [nM]","IC50 (IRF4 mRNA; LP-1, 6 hr) [nM]",EC50 [1] [µM],IC50 [2] [nM],SMILES,GI50 (KMS28BM) [nM],GI50 (MOLP-8) [nM],GI50 (KMM-1) [nM],GI50 (AMO-1) [nM],GI50 (OPM2) [nM],GI50 (LP-1) [nM],further results
9990,1680,3440,1100,860,18.7 ± 1.2,2100 ± 300,COc1ccc(CCc2nc3cc(-c4c(C)noc4C)ccc3n2C[C@H](C)N2CCOCC2)cc1Cl [SGC-CBP30],2170,2060,11700,1800,1530,780,"log2GI50 (KMS28BM): 1.12; log2GI50 (MOLP-8; MOLP8): 1.04; log2GI50 (KMM-1; KMM1): 3.54; log2GI50 (AMO-1; AMO1): 0.85; log2GI50 (RS4;11; RS411): 3.32; log2GI50 (NCI-H929; H929): 0.75; log2GI50 (RPMI-8226; RPMI8226): 1.78; log2GI50 (OPM2; OPM2): 0.61; log2GI50 (LP-1; LP1): -0.36; log2FC (IRF4) (IRF4 mRNA; AMO1): -1.36; log2FC (IRF4) (IRF4 mRNA; H929): -0.75; log2FC (IRF4) (IRF4 mRNA; KMM1): -0.53; log2FC (IRF4) (IRF4 mRNA; KMS28BM): -0.93; log2FC (IRF4) (IRF4 mRNA; LP1): -1.23; time to suppression of IRF4 after addition of compound (IRF4 mRNA; LP-1, 2.5 μM): ≤ 2 h; log2FC (IRF4) (IRF4 mRNA; MOLP8): -1.29; log2FC (IRF4) (IRF4 mRNA; OPM2): -0.98; log2FC (IRF4) (IRF4 mRNA; RPMI8226): -0.55; log2FC (IRF4) (IRF4 mRNA; RS411): -0.31"
15600,3800,14600,2900,2000,> 20,8900 ± 60,CCC(=O)N1CCOc2c(cc(-c3ccc(OC)c(OC)c3)cc2OC[C@H]2CCCN(C)C2)C1 [I-CBP112],4440,3520,> 20000,9390,2820,1510,–
